What was measured:
[1] = test system: murine cortical neurons (14 DIV); experiment: NMDA-mediated neuroprotective assay (CCK8 viability); format: cell-based, mouse; details: 1 μM, 3 h pre-treatment, NMDA 8 μM 24 h, p<0.05
Outline: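 Primary murine cortical neurons pre-treated with 1 μM compound for 3 or 24 h, then exposed to 8 μM NMDA for 24 h. Viability read by CCK-8 and expressed relative to NMDA-only control; vehicle 0.02% DMSO.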

[2] = test system: iPSC-derived glutamatergic neurons; experiment: ROS (tBuOOH)-mediated neuroprotective assay on hNeu; format: cell-based, human
Method: Neuroprotective experiments were performed using iPSC-derived glutamatergic neurons from 3 healthy controls cultured for 30-40 DIV. Cells were pre-treated for 24 h with […] of compounds, vehicle (DMSO) or 5 nM Mito-Q (mitoquinone) served as a positive control. On the next day cells were incubated for 2 h with 100 µM of tert-butyl peroxide (tBuOOH, Sigma), then the medium was replaced and the viability readout by CCK8 viability assay kit (Dojindo) was performed on the following day. The cell viability was expressed as normalized Z score and compared to tBuOOH-treated cells with nonparametric Kruskal-Wallis test with Dunn's multiple comparisons correction.
32 “Front runners” and 7 compounds from short list were tested on iPSC-derived neurons from three control lines in ROS-mediated assay to evaluate a neuroprotective potential of selected compounds. Three independent experiments were performed for CTR4 and CTR8, FIG. 20 (A, C), while two independent experiments were performed for CTR7, FIG. 20 (B).

[3] = test system: H9-derived human neural stem cells; experiment: Neurotoxic or regenerative effect screening (CellTiter-Glo); format: cell-based; details: 10 μM, three independent screenings
Method: H9-derived human neural stem cells (H9 hNSCs, Gibco) were cultured according to the manufacturer's instructions. Briefly, H9 hNSCs were expanded and subsequently differentiated in neurobasal medium, 2% B27, 1% Glutamax, and 1% penicillin/streptomycin, supplemented with 10 ng/ml BDNF (Peprotech), and 2 ng/ml recombinant human GDNF (Peprotech). After 7 days, 500 μM of db-cAMP (N6,2′-O-dibutyryladenosine 3′,5′-cyclic monophosphate, Sigma) was added.
The metabolic activity/viability of selected compounds (32 “Front Runners”+24 compounds from the “Short list”) was evaluated by CellTiter-Glo® Luminescent Cell Viability Assay. The primary screen of Front Runner List (32 compounds)+24 compounds from Short List) on H9-derived human neurons was performed at 10 μM concentration. The validation of hits from primary screen on H9-derived human neurons was performed at 10 μM concentration.
32 Front Runners were tested at 10 μM on H9-derived human neuronal cultures and viability was evaluated by CellTiter-Glo® Luminescent Cell Viability Assay.

[4] = test system: primary murine spinal cord culture; experiment: Myelinating cell cultures from primary murine spinal cord; format: cell-based, mouse; details: 1 μM
Method: Single cell suspensions are prepared from spinal cord of mouse embryos (E13) (adapted from Thomson, 2008) and 1.5×10^5 cells/well were plated into 96 well plates. Over time, these cultures mature and form axons, which later myelinate. Using spinal cord tissue facilitates the quantification of mature MBP+ oligodendrocytes and newly formed myelin by in-house high-content imaging system (Operetta High Content Imaging System, Perkin Elmer) with a 20× lens. From each well, 25 fields in a 5×5 matrix were scanned. Thirty-two “Front Runners” compounds were tested in replicates of five at 1 μM/DMSO, while T3, benzotropine and clemastine were used as positive controls, DMSO as negative/solvent control. Two experimental paradigms were applied: “Early treatment”: exposure to experimental agent from DIV7 to DIV14; “Late treatment”: exposure to experimental agent from DIV14-DIV21. On DIV21, cultures were fixed and stained (myelin: MBP, axons: NF200; nuclei: Hoechst). Imaging data were analysed using CellProfiler and in-house generated analysis pipeline.
Thirty-two “Front Runners” compounds were tested in replicates of five at 1 μM/DMSO, while T3, benztropine and clemastine were used as positive controls, DMSO as negative/solvent control. Two experimental paradigms were applied: “Early treatment”: exposure to experimental agent from DIV7 to DIV14; “Late treatment”: exposure to experimental agent from DIV14-DIV21. […] In “Late treatment” paradigm in myelin area evaluation were identified Vanoxerine, Roxadustat, Tamibarotene, Drinabant, Progesterone, Saracatinib. In quantification of myelinated axons were identified Vanoxerine, Drinabant, Roxadustat.

[5] = test system: mouse cortical and striatal neurons; experiment: Morphological integrity evaluation, NMDA 20 μM; format: cell-based; details: 1 μM, 24 h pre-treatment, NMDA 20 μM 24 h
Method: Morphological integrity evaluation. Mouse cortical and striatal neurons (14 DIV) cultured in MW96 plates were exposed to 1 uM to 60 uM concentrations of NMDA and relationship between the NMDA dose and fiber length was evaluated. […] Each of the compound was tested in quadruplicate. The fiber length was evaluated by MAP2 staining (please see the method described earlier).
42 compounds were screened to evaluate the morphological integrity of cortical and striatal neurons upon chronic (24 h) NMDA exposure at concentration of 20 μM with compounds pre-treatment (24 h) in preventive regimen (FIG. 17).

[6] = test system: rat primary OPC cultures; experiment: Differentiation of rat primary OPC into MBP+ OLs; format: cell-based; details: 96 h, 4 days of differentiation, read-out: MBP+ differentiation (MBP+/SOX10+ OLs plus compounds / plus basal medium)
Outline: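 Primary rat OPCs were differentiated for 4 days with compounds at […], in triplicate over 3 independent experiments. Cells were immunolabelled for CNPase, MBP and SOX10, and MBP+ oligodendrocytes were counted by imaging. Results are fold increase in MBP+/SOX10+ cells over basal medium; 9-cis-RA ([…]) was the positive control.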

[7] = summary for all three control lines
[8] = control line CTR4, 1 μM, p<0.05

SMILES	neuroprotection of viability/metabolic activity against NMDA [1]	protection from tBuOOH insult [2, 7]	cumulative Z-scores of ATP production/viability [3]	myelin area ([4]; Early treatment DIV7 to DIV14)	fold induction at 1 µM [6]	also measured
CCOC(=O)[C@@H](N)CCC(=O)N[C@@H](CSCc1ccccc1)C(=O)N[C@@H](C(=O)OCC)c1ccccc1.Cl [Ezatiostat hydrochloride, Ezatiostat Hydrochloride]	hit compounds	potential neuroprotective effect from tBuOOH-mediated insult	potential hits			
CC(=O)[C@H]1CC[C@H]2[C@@H]3CCC4=CC(=O)CC[C@]4(C)[C@H]3CC[C@]12C [Progesterone]	hit compounds			identified		myelin area ([4]; Late treatment DIV14-DIV21): identified
CC(=O)N1CCN([C@H]2CCN(C(=O)N(C)[C@H](C)c3cc(C(F)(F)F)cc(C(F)(F)F)c3)[C@@H](c3ccc(F)cc3C)C2)CC1 [Casopitant]		potential neuroprotective effect from tBuOOH-mediated insult	potential hits	identified	> 1.6	morphological integrity (neurite length) of cortical and striatal neurons [5]: selected for confirmation; quantification of myelinated axons ([4]; Early treatment DIV7 to DIV14): identified; protection from tBuOOH insult [2, 8]: protected from tBuOOH insult; protection from tBuOOH insult ([2]; control line CTR7, p=0.07): trend to significance
NCCCC[C@H](NC(=O)[C@@H](Cc1cc(Br)c(O)c(Br)c1)NC(=O)N1CCC(N2Cc3ccccc3NC2=O)CC1)C(=O)N1CCN(c2ccncc2)CC1 [Olcegepant]		potential neuroprotective effect from tBuOOH-mediated insult			> 1.6	morphological integrity (neurite length) of cortical and striatal neurons [5]: selected for confirmation
CC1(C)CCC(C)(C)c2cc(NC(=O)c3ccc(C(=O)O)cc3)ccc21 [Tamibarotene]	hit compounds			identified	> 1.6	myelin area ([4]; Late treatment DIV14-DIV21): identified
O=C(c1ccc(CN2CCOCC2)cc1)N1CCN(C2CC2)CC1 [Bavisant]					> 1.6	
C[C@H](Nc1cc(-c2cnn(C)c2)cc(Nc2cnccn2)n1)c1ccc(F)cc1 [NS-018]		potential neuroprotective effect from tBuOOH-mediated insult		identified		quantification of myelinated axons ([4]; Early treatment DIV7 to DIV14): identified; protection from tBuOOH insult [2, 8]: protected from tBuOOH insult; protection from tBuOOH insult ([2]; control line CTR8, p<0.05): potential neuroprotective compound from tBuOOH-mediated insult
O=C(NOC[C@H](O)CO)c1ccc(F)c(F)c1Nc1ccc(I)cc1F [PD-0325901]			potential hits		> 1.6	

— patent US20240148745A1, “COMPOUNDS FOR USE IN PROGRESSIVE MULTIPLE SCLEROSIS” (FONDAZIONE CENTRO SAN RAFFAELE, priority 2021, published 2024)
